Measurements published in article PMC10605010, “Immunotechniques for the Group Determination of Macrolide Antibiotics Traces in the Environment Using a Volume-Mediated Sensitivity Enhancement Strategy” (Biosensors, 2023).
≈ marks a conversion by molar mass, not a printed value. Read-outs that look alike come from different tables or passages of the source.

Experiments:
[1] = system: anti-BSA-cmoCLA(ae) antibodies; parameters: method as in PMID 25256165; conditions: coating antigen GEL-cmoCLA(ae), homologous; cited from earlier work
[2] = system: antibody to immunogen BSA-cmoERY(ma); parameters: method as in PMID 25308648; conditions: milk, cited from earlier work
[3] = system: antibody to immunogen BSA-cmoERY(ma); conditions: milk; ERY = 100; cited from earlier work
[4] = system: Anti-CLA(IgG) coupled to Sepharose beads; test: Immunofiltration assay (IFA); assay type: binding, rabbit; conditions: overnight, Ab volume 50 µL, standard/sample 10,000 µL
Procedure: (§1) Sepharose 4B or Sepharose-CL-2B (Pharmacia, Uppsala, Sweden) were washed with water on a porous glass filter and then squeezed out with a soft press from excess moisture. The washed beads (2 g) were placed in a vial with sodium periodate solution (60 mg in 5 mL H2O) and mixed with a rotary mixer (ELMI Ltd. laboratory equipment, Riga, Latvia) for 45 min. An additional 30 min rotation continued after the addition of ethylene glycol (250 µL). The beads were then washed with water and finally with CBB (pH 9.6) squeezed mildly out. Each of the activated sorbents was placed in a vial for mixing with anti-cmoCLA IgG (10 mg) in 2 mL CBB (pH 9.6) for 48 h at 4 °C. The excess antibody was squeezed out. The beads were then washed with water and placed in a sodium borohydride solution (4 mg/4 mL) for 1 h with occasional shaking. After the final washing with water and PSBT, the resulting immune sorbents were stored at 4 °C in 10 mL of PSBT preserved with Merthiolate (1 mg).
(§2) To implement these assay formats, the IgG fraction was first isolated from antiserum via the double precipitation method using caprylic acid and ammonium sulfate, described in detail in [22]. The principle of the assays is based on competition between analyte and enzyme-labeled antigen (HRP-aecAZI) for binding to an antibody coated on the plate (dcELISA) or coupled covalently to Sepharose beads. The latter immunosorbent was used in the immunobeads assay (IBA) and immunofiltration assay (IFA).
Immunofiltration assay (IFA). The IFA principle consisted of passing a mixture of standard/sample (10 mL) and HRP-aecAZI through the beads with immobilized antibodies (Anti-CLA(IgG)-S4B or Anti-CLA(IgG)-SCL2B) placed in a homemade column and recording the enzymatic activity of the captured HRP-aecAZI. Briefly, the optimal volume of the prepared immunosorbent was placed on a pre-moistened filter support in a 10 μL filtered micropipette tip, which was then accurately attached to a syringe. This homemade column was filled with 10 mL of the standard analyte or water sample, avoiding the formation of bubbles. […]

[5] = system: Anti-CLA(IgG) coupled to Sepharose beads; test: Immunobead assay (IBA); assay type: binding, rabbit; conditions: 2 h
Procedure: as §1, §2
Immunobead assay (IBA). Standard solution of analyte or tested sample in 1–2 mL PBST were accomplished with HRP-aecAZI and immunosorbents Anti-CLA(IgG)-S4B or Anti-CLA(IgG)-SCL2B taken in optimized concentration/volume and incubated for 0.5–3 h periods at a rotary mixer mixing (15 rpm). The beads were then pelleted using centrifugation (5 min, 3400× g) and suspended to the original volume with PBST. After three washing cycles, the bead pellet was suspended with TMB-substrate mixture (200 μL), and 8 M sulfuric acid (50 μL) was added 30 min later to terminate enzymatic reaction. The intensity of the colored product was measured using a plate reader at 450 nm.

[6] = Ab volume 10 µL, standard/sample 1000 µL
[7] = Ab volume 20 µL, standard/sample 2000 µL

In the case of `CC[C@H]1OC(=O)[C@H](C)[C@@H](O[C@H]2C[C@@](C)(OC)[C@@H](O)[C@H](C)O2)[C@H](C)[C@@H](O[C@@H]2O[C@H](C)C[C@H](N(C)C)[C@H]2O)[C@](C)(O)C[C@@H](C)C(=O)[C@H](C)[C@@H](O)[C@]1(C)O` [ERY, Erythromycin], the IC50 [1] is given as 0.20 ng/mL (≈ 0.273 nM), the CR ([2]; ERY = 100) is given as 100% and the IC50 [2] is given as 0.94 ng/mL (≈ 1.28 nM). For the same compound, the LOD [2] was 0.3 ng/mL, the CR [3] was 100% and the “IC10 (LOD)” value [4] was 0.001 ng/mL (≈ 0.00136 nM). The “IC20-IC80 (working range)” value [4] was 0.002 to 0.019 ng/mL, the IC50 [4] was 0.005 ng/mL (≈ 0.00681 nM) and the “IC10 (LOD)” value [5, 6] was 0.003 ng/mL (≈ 0.00409 nM). For the same compound, the “IC20-IC80 (working range)” value [5, 6] was 0.006 to 0.056 ng/mL, the IC50 [5, 6] was 0.018 ng/mL (≈ 0.0245 nM) and the “IC10 (LOD)” value [5, 7] was 0.001 ng/mL (≈ 0.00136 nM). The “IC20-IC80 (working range)” value [5, 7] was 0.003 to 0.057 ng/mL and the IC50 [5, 7] was 0.012 ng/mL (≈ 0.0164 nM).
